The values below come from patent US8735623B2, “Process for preparing creatine amides” (priority 2009, dated 2014).

For series [1] the following is noted: 37° C. As to the method:
Stability of amides of creatine in human plasma was assessed by relative change in concentration of amides of creatine in plasma. 1 mL of plasma was mixed with 0.2 mL of amides of creatine aqueous solution with concentration 5 mg/mL, a mixture was kept at a temperature of 37° C., aliquot of volume 0.2 mL was drawn in fixed time ranges, mixed with 0.02 mL of trifluoroacetic acid 10% solution, a precipitate was centrifuged at […] for 20 min. A concentration of amides of creatine in supernatant was determined by HPLC method (Table 4).

The test system of series [2] is rat model of focal ischemia. To be noted: score 18 max, 3 min. As to the method:
Cerebral ischemia was induced by the method mentioned above. A solution of amides of creatine or saline was administered intravenous. […] Testing the animals was carried out before ischemia, on a second and third days after ischemia-reperfusion at a fixed time for exclusion of behavioral changes by means of circadian rhythm. Spontaneous activity, symmetrical limb movement, climbing onto vertical reticulated wall, body proprioreception, touching to vibriss were assessed. A maximum point by assigned score was 18 (lack of neurological deficit), minimum—3 (severe neurological deficit).

Series [3] in a line: Stability in artificial gastric secretion (HPLC). The note with it: 37° C. As to the method:
10 mg of amides of creatine was dissolved in 20 mL of artificial gastric secretion for study of amides of creatine stability, solution aliquot was place into vial for chromatograph. Vial with solution was place into chromatograph autosampler at 37° C. Initial concentration of amides of creatine and its relative change in gastric secretion were determined by HPLC at indicated temperature (Table 3).

Series [4] relates to rat model of focal ischemia. The note with it: 30 min ischemia, 48 hour reperfusion, male Wistar rat. As to the method: Research of the neuroprotective action of amides of creatine was carried out in a rat model of focal ischemia (male, Wistar, 12÷14 weeks, 220÷240 g). Anesthesia was performed by sodium thiopental 60 mg/kg. A solution of amides of creatine in saline was administered intravenous to the first group of animals 45 min before ischemia, saline was administered to a control group, a solution of amides of creatine in saline was administered intragastric per os by an enteral tube a day before ischemia to the second group of animals 3 times per day, saline was administered to a control group.
Standard time of ischemia constituted 30 min, standard time of reperfusion constituted 48 hour. The animals were sacrificed, brain slices with thickness of 2 mm were produced for assessing a brain damage volume. The damage area was determined by staining with […] followed by data acquisition and analysis of stained slice digital images. A brain damage coefficient, i.e. a relation of damage area to the slice surface was calculated (Table 1).

For series [5] the following is noted: 20-30 g per day for a few days; cited from earlier work.
For series [6] the following is noted: in vivo; cited from earlier work.
Setting [7] is: i./v., 150 mg/kg, 45 min before ischemia.
Where [8] appears, read: per os, 3 × 150 mg/kg, a day before ischemia.

Structures are written as SMILES. Where two headings read alike, the source gives them in different places.

On to `CC(=O)O.CC(C)OC(=O)CNC(=O)CN(C)C(=N)N` [Agent 1, Creatinyl-Glycine iso-Propyl Ester Acetate], for which the “Stability in human plasma” value in series [1] (0 hour) is listed as 100%; in series [1] (0.25 hour), 100%; in series [1] (0.5 hours), 99%; in series [1] (1 hour) it was 91%. Further, the “Neurological condition by Garcia score, 2nd day after ischemia” value in series [2] (150 mg/kg intravenous) turned out to be 10 ± 2. Also, the “Neurological condition by Garcia score, 3rd day after ischemia” value in series [2] (150 mg/kg intravenous) is reported as 15 ± 2. For the same compound, the “Neurological condition by Garcia score, 1 day before ischemia” value in series [2] (150 mg/kg intravenous) came to 18 ± 0. For the same compound, the “Stability in gastric secretion” value stood at 100% in series [3] (0 hour), 100% in series [3] (1 hour), 99% in series [3] (3 hours) and 97% in series [3] (5 hours). In addition, the Brain damage coefficient in series [4] (setting [7]) stood at 11.2 ± 2.3%; in series [4] (setting [8]), 14.2 ± 3.0%.

As to `CC(=O)O.CCOC(=O)CNC(=O)CNC(=O)CN(C)C(=N)N` [Agent 2, Creatinyl-Glycyl-Glycine Ethyl Ester Acetate], the “Stability in human plasma” value in series [1] (0 hour) came to 100%; in series [1] (0.25 hour), 100%; in series [1] (0.5 hours), 97%; in series [1] (1 hour), 90%. Further, the “Stability in gastric secretion” value is 100% in series [3] (0 hour), 100% in series [3] (1 hour), 98% in series [3] (3 hours) and 98% in series [3] (5 hours). This compound returned a Brain damage coefficient in series [4] (i./v., 200 mg/kg, 45 min before ischemia) of 12.1 ± 2.0%.

In the case of `CCNC(=O)CNC(=O)CN(C)C(=N)N.O=C(O)C(O)C(O)C(=O)O` [Agent 3, Creatinyl-Glycine Ethylamide Tartrate], the “Stability in human plasma” value came out at 100% in series [1] (0 hour), 100% in series [1] (0.25 hour), 95% in series [1] (0.5 hours) and 90% in series [1] (1 hour). Further, the “Neurological condition by Garcia score, 2nd day after ischemia” value in series [2] (150 mg/kg intravenous) came out at 11 ± 2. Besides, the “Neurological condition by Garcia score, 3rd day after ischemia” value in series [2] (150 mg/kg intravenous) is recorded as 16 ± 1. In addition, the “Neurological condition by Garcia score, 1 day before ischemia” value in series [2] (150 mg/kg intravenous) is 18 ± 0. Moreover, the “Stability in gastric secretion” value is recorded as 100% in series [3] (0 hour), 100% in series [3] (1 hour), 97% in series [3] (3 hours) and 98% in series [3] (5 hours). For the same compound, the Brain damage coefficient in series [4] (setting [7]) is listed as 12.0 ± 1.7%; in series [4] (setting [8]) it was 13.9 ± 3.3%.

Regarding `CC(=O)O.CC(=O)O.CCOC(=O)[C@@H](N)CCCCNC(=O)CN(C)C(=N)N` [Agent 4, N^ε-Creatinyl-Lysine Ethyl Ester Diacetate], the “Stability in human plasma” value is on record as 100% in series [1] (0 hour), 100% in series [1] (0.25 hour), 100% in series [1] (0.5 hours) and 89% in series [1] (1 hour). The “Neurological condition by Garcia score, 2nd day after ischemia” value in series [2] (100 mg/kg intravenous) is on record as 14 ± 1. For the same compound, in series [2] (100 mg/kg intravenous), the “Neurological condition by Garcia score, 3rd day after ischemia” value was found to be 17 ± 2. In series [2] (100 mg/kg intravenous), the “Neurological condition by Garcia score, 1 day before ischemia” value came to 18 ± 0. Also, the “Stability in gastric secretion” value in series [3] (0 hour) is listed as 100%; in series [3] (1 hour), 100%; in series [3] (3 hours), 98%; in series [3] (5 hours), 97%. Moreover, the Brain damage coefficient in series [4] (i./v., 100 mg/kg, 45 min before ischemia) stood at 13.3 ± 3.2%; in series [4] (per os, 3 × 100 mg/kg, a day before ischemia) it was 15.2 ± 2.9%.

Take `CCNC(=O)C(Cc1ccccc1)NC(=O)CN(C)C(=N)N.Cl` (stereo not shown) [Agent 5, Creatinyl-Phenylalanine Ethylamide Hydrochloride]: the “Stability in human plasma” value in series [1] (0 hour) is recorded as 100%; in series [1] (0.25 hour), 100%; in series [1] (0.5 hours) it was 97%; in series [1] (1 hour), 87%. In addition, the “Neurological condition by Garcia score, 2nd day after ischemia” value in series [2] (50 mg/kg intravenous) is listed as 11 ± 1. Besides, the “Neurological condition by Garcia score, 3rd day after ischemia” value in series [2] (50 mg/kg intravenous) was determined as 14 ± 1. Besides, in series [2] (50 mg/kg intravenous), the “Neurological condition by Garcia score, 1 day before ischemia” value is recorded as 18 ± 0. For the same compound, the “Stability in gastric secretion” value in series [3] (0 hour) is on record as 100%; in series [3] (1 hour), 100%; in series [3] (3 hours), 98%; in series [3] (5 hours), 99%. In addition, the Brain damage coefficient in series [4] (i./v., 50 mg/kg, 45 min before ischemia) is listed as 14.0 ± 1.1%.

Turning to `CC(=O)O.CCOC(=O)CCCNC(=O)CN(C)C(=N)N` [Agent 6, Creatinyl-γ-Aminobutyric acid Ethyl Ester acetate], the “Neurological condition by Garcia score, 2nd day after ischemia” value in series [2] (45 mg/kg intravenous) is 14 ± 0. In addition, the “Neurological condition by Garcia score, 3rd day after ischemia” value in series [2] (45 mg/kg intravenous) was found to be 16.0 ± 1.1. The “Neurological condition by Garcia score, 1 day before ischemia” value in series [2] (45 mg/kg intravenous) stood at 18 ± 0. Moreover, the “Stability in gastric secretion” value in series [3] (0 hour) is recorded as 100%; in series [3] (1 hour), 100%; in series [3] (3 hours), 99%; in series [3] (5 hours) it was 99%. The compound further came in with a Brain damage coefficient in series [4] (i./v., 45 mg/kg, 45 min before ischemia) of 13.1 ± 1.0%.

Consider `CN(CC(=O)O)C(=N)N.O` [creatine monohydrate], for which, in series [5], the “Increasing of total creatine content in human skeletal muscles” value is given as “more than 20%”.

Consider `CN(CC(=O)O)C(=N)N` [creatine, Creatine], for which the “Extent of absorbtion from gastro-intestinal tract” value in series [6] is recorded as 1 to 14%.
